This is an account of results in patent US20080213813A1, “Histone deacetylase inhibitor and use thereof” (priority 2002, published 2008).

Holding throughout (format): cell-based, human
Series [1] concerns HeLa cells. Briefly: Microtubule stability against Colcemid in HeLa cells (immunofluorescence). To be noted: pretreated (1 μM 16 hours, or 200 nM oligonucleotide 24 hours), then 1 μM Colcemid 15 minutes, FIG. 11.
Description: (3) the introduction of HDAC6 antisense oligonucleotide No. 16 at a final concentration of 200 nM with OligofectAMINE followed by a 24-hour culture.
Then, Lab-TekII Chambered Coverglass was washed with 0.1 M PIPES (pH 6.9), the cells were fixed in 0.5% glutaraldehyde/0.1 PIPES (pH 6.9) for 10 minutes, washed three times with PBS, permealized three times with 0.5% Triton X100/PBS for 5 minutes each, washed three times with PBS, treated three times with 2.5 mg/ml sodium borohydride/50% ethanol for 10 minutes each, washed three times with PBS, blocked with 10% normal goat serum/PBS, reacted with a primary antibody rat anti-α-tubulin monoclonal antibody (MAB1864; CHEMICON)/PBS for 1 hour, washed three times with 0.1% Tween 20/PBS, reacted with a second antibody Alexa Fluor 488-conjugated anti-rat IgG (Molecular Probe)/PBS for 30 minutes, and washed three times with 0.1% Tween 20/PBS, and then examined under a conforcal laser scanning microscope (Carl Zeiss).
The test system of series [2] is HeLa cells. Briefly: Changes in microtubule structure in HeLa cells (immunofluorescence, confocal microscopy). To be noted: FIG. 5. The method, then: HeLa cells were plated on the Lab-TekII Chambered Coverglass (Nunc), and were subjected to:
(1) treatment for 16 hours with 1 μM Paclitaxel (Sigma), a microtubule polymerizing agent;
(3) the introduction of HDAC6 antisense oligonucleotide No. 4 at a final concentration of 200 nM with OligofectAMINE followed by a 24-hour culture.
Then, Lab-TekII Chambered Coverglass was washed with 0.1 M PIPES (pH 6.9), the cells were fixed in 0.5% glutaraldehyde/0.1 M PIPES (pH 6.9) for 10 minutes, washed three times with PBS, permealized three times with 0.5% Triton X100/PBS for 5 minutes each, washed three times with PBS, treated three times with 2.5 mg/ml sodium borohydride/50% ethanol for 10 minutes each, washed three times with PBS, blocked with 10% normal goat serum/PBS, reacted with a primary antibody (a) anti-acetylated α-tubulin antibody (clone 6-11B-1, Sigma) or (b) anti-α-tubulin antibody (clone DM lA, Sigma)/PBS for 1 hour, washed three times with 0.1% Tween 20/PBS, reacted with a second antibody Alexa Fluor 488-conjugated anti-mouse IgG (Molecular Probe)/PBS for 30 minutes, and washed three times with 0.1% Tween 20/PBS, and then examined under a conforcal laser scanning microscope (Carl Zeiss).

The subject of series [3] is HDAC6. Briefly: Suppression of HDAC6 protein expression in HeLa cells (Western blot). To be noted: for production of HDAC6, changing treatment time: 200 nM, 24, 30, 36 and 48 hours, FIG. 4. (In general: In western blotting, separated proteins are transferred to a membrane and probed.)
The next series relates to acetylated α-tubulin. Briefly: Acetylation of α-tubulin in HeLa cells (Western blot). To be noted: 200 nM, 24, 30, 36 and 48 hours, FIG. 4. The method, then:
The each synthesized antisense oligonucleotide was dissolved in sterile water, and was introduced into HeLa cells using the OligofectAMINE (Invitrogen) according to an attached protocol. The 1.5×10^5 HeLa cells were plated in a 6-well plate, the final concentration of antisense oligonucleotide was set at 200 nM, and OligofectAMINE was used at 3 μl/well.
[…] After the cells were lysed with a SDS-PAGE sample buffer (BPB-free) and protein concentration was determined, the cell lysate at 25 μg/lane was separated by SDS-PAGE, transferred to a PVDF membrane, and immunoblotted with anti-acetylated α-tubulin antibody (clone 6-11B-1, Sigma), anti-α-tubulin antibody (clone DMlA, Sigma) or anti-HDAC6 antibody (H-300, Santa Cruz).

In series [4] the test system is HDAC6. Briefly: Suppression of HDAC6 protein expression in HepG2, SW480, LoVo and Calu-1 cells (Western blot). To be noted: HepG2, SW480, LoVo, Calu-1 cells; 200 nM, 48 hours; FIG. 8.
Series [5] relates to HeLa cells. Briefly: Depolarization of mitochondrial membrane potential in HeLa cells (JC-1, FACS). To be noted: 200 nM, 24, 36 or 48 hours, FIG. 7. As for the experimental part: HeLa cells (1.5×10^5/well) were plated into a 6-well plate with MEM medium containing 10% FCS and 1× nonessential amino acids. HDAC6 antisense oligonucleotide No. 4, 5 or 16 at the final concentration of 200 nM or the control oligonucleotide was introduced into the cells with OligofectAMINE at 3 μl/well, and the cells were treated for 24 hours, 36 hours or 48 hours. Mitochondrial potential sensor JC-1 (Molecular Probes) was added to the medium at the final concentration of 10 μg/ml and the cells were further caltivated at 37° C. for 10 minutes. Ten minutes later, the cells were detached by trypsin treatment and collected, and analyzed using the FACS caliber (Becton Dickinson).
Therefore, in order to detect the cells in which mitochondrial membrane potential is depolarized, the ratio of green fluorescence-positive cells was graphically shown and used as an index of apoptosis.

The subject of series [6] is HeLa cells. Briefly: Induction of apoptosis in HeLa cells (Annexin V-PE, FACS). To be noted: 200 nM, 24 to 48 hours, FIG. 6. As for the experimental part:
HeLa cells (1.5×10^5/well) were plated into a 6-well plate with MEM medium containing 10% FCS and 1× nonessential amino acids. HDAC6 antisense oligonucleotide No. 4, 5, 6 or 16 at the final concentration of 200 nM or the control oligonucleotide was introduced into the cells with OligofectAMINE at 3 μl/well, and the cells were treated for 24 hours, 30 hours, 36 hours, or 48 hours. The cells were detached by trypsin treatment and collected, and stained with Annexin V-PE (Becton Dickinson) according to a protocol attached, and analyzed using the FACS caliber (Becton Dickinson).
Thus, the collected cells were washed with PBS, suspended in 100 μl of the binding buffer (Becton Dickinson), to which suspension 5 μl of Annexin V-PE was added and incubated for 15 minutes, and the binding buffer was added to make a total volume of 500 μl. This was subjected to FACS analysis.

For the molecule `CC(/C=C/C(=O)NO)=C\[C@@H](C)C(=O)c1ccc(N(C)C)cc1` [Trichostatin A], in the series with HeLa cells [1], the “microtubules after Colcemid in pretreated cells” value was “the remaining of the polymerized microtubules was observed”. In addition, in the series with HeLa cells [2] (1 μM Trichostatin A 16 hours or 200 nM antisense oligonucleotide 24 hours), the microtubule structure result is reported as “images of polymerized microtubules were observed throughout the cytoplasm”.

In the case of “antisense oligonucleotide 6: phosphorothioated HDAC6 antisense oligonucleotide TTTATTACAT ATGCAACCTT, upstream sequence comprising the polyadenylation signal; used as negative control (antisense TTTATTACATATGCAACCTT; all phosphorothioate, sugars by position and methylation of C not given here)”, the “production of HDAC6, changing treatment time” value with HDAC6 [3] is listed as “inhibits the production of HDAC6”. In addition, the “acetylation of α-tubulin, changing treatment time” value in the series on acetylated α-tubulin is “enhances the acetylation of α-tubulin”.

Consider “control oligo: control oligonucleotide CCTCTTACCT CAGTTACAAT, from abnormal splicing site 705 of β globin pre-mRNA; no specific target in normal cells (antisense CCTCTTACCTCAGTTACAAT; all phosphorothioate, sugars by position and methylation of C not given here)”, for which the “amount of expressed HDAC6 protein” value in the series on HDAC6 [3] (200 nM oligonucleotide, 48 hours after introduction, FIG. 3) is given as “did not have any activity of causing the reduction of HDAC6 protein expression”. In the series on HDAC6 [4], the “amount of expressed HDAC6” value was “did not have any activity of causing the reduction of HDAC6 protein expression”.

On to `CC(=O)O[C@H]1C(=O)[C@@]2(C)[C@H]([C@H](OC(=O)c3ccccc3)[C@]3(O)C[C@H](OC(=O)[C@H](O)[C@@H](NC(=O)c4ccccc4)c4ccccc4)C(C)=C1C3(C)C)[C@]1(OC(C)=O)CO[C@@H]1C[C@@H]2O` [Paclitaxel], for which the “microtubules after Colcemid in pretreated cells” value in the series on HeLa cells [1] was “the remaining of the polymerized microtubules was observed”. Also, in the series with HeLa cells [2] (1 μM, 16 hours), the “microtubule structure, stained with anti-acetylated α-tubulin antibody” value is given as “hyperpolymerized microtubules from the centromere were observed” and the “microtubule structure, stained with anti-α-tubulin antibody” value was “hyperpolymerized microtubules were observed in the periphery of the nucleus”.

In the case of “antisense oligonucleotide 5: phosphorothioated HDAC6 antisense oligonucleotide GCTGCCTGGT TGTGGTGGAA, complementary to a sequence downstream of ATG (antisense GCTGCCTGGTTGTGGTGGAA; all phosphorothioate, sugars by position and methylation of C not given here)”, in the series on HDAC6 [3], the “production of HDAC6, changing treatment time” value was “inhibits the production of HDAC6”. The “acetylation of α-tubulin, changing treatment time” value in the series with acetylated α-tubulin was “the acetylation of α-tubulin was enhanced at any time”. Moreover, in the series with HeLa cells [5], the “mitochondrial depolarization judged by JC-1 staining” value is reported as “induces mitochondrial depolarization”. Besides, the “apoptosis judged by Annexin V positivity” value with HeLa cells [6] is “induces apoptosis”.
